These are literature values, as cited in patent publication US20140187520A1, “STABLE INJECTABLE PHARMACEUTICAL COMPOSITION OF VITAMIN D RECEPTOR AGONIST AND PROCESS FOR PREPARATION THEREOF” (PHARMATHEN S.A., priority 2012, published 2014).

Turning to `C[C@H](/C=C/[C@H](C)C(C)(C)O)[C@H]1CC[C@H]2/C(=C/C=C3C[C@@H](O)C[C@H](O)C3)CCC[C@]12C` [paricalcitol, 19-nor-1α,3β,25-trihydroxy-9,10-secoergosta-5(Z),7(E), 22(E)-triene], the solubility in alcohol result (alcohol) is on record as “soluble”. Besides, the solubility in water entry (water) is on record as “insoluble”.
